Measurements published in article PMC6751662, “Pharmacological and functional similarities of the human neuropeptide Y system in C. elegans challenges phylogenetic views on the FLP/NPR system” (Cell Communication and Signaling : CCS, 2019).

Experiments:
NPR-6 = assay: cAMP reporter gene assay, Gi/o (inhibition of forskolin-induced cAMP), NPR-6; assay type: cell-based, C. elegans; conditions: 1 µM forskolin set to 1.00, transiently transfected HEK293 cells, mean of at least three independent experiments
Description: (§1) Activation of Gs and Gi/o was assessed with a cAMP reporter gene assay. HEK293 cells grown to 70–80% confluency in 6-well plates were transiently co-transfected with vectors encoding the receptor and the cAMP reporter gene plasmid pGL4.29 [luc2P/CRE/Hygro] (Promega; 4 μg total, 1:1 ratio) using Metafectene Pro (3 μl/μg DNA; Biontex) following the manufacturer’s instructions. 16 h post transfection, the cells were seeded into white 384-well plates at a density of 20,000 cells/well. On the next day, the medium was removed and the cells were stimulated with 20 μl of peptide solution (or forskolin as positive control) in serum-free DMEM for 4 h. For measuring Gi/o activity, the peptide solutions additionally contained 1 μM forskolin to elevate cellular cAMP levels. After incubation, the luciferase substrate OneGlo in lysis buffer (Promega) was added and the luminescence was measured in a microplate reader Tecan Spark (Tecan). Data were analyzed with GraphPad Prism 5.03 and are shown as fold of basal or fold of forskolin in case of Gαi/o activity.
(§2) For in vitro activation, data is presented as mean ± SEM of at least three independent experiments conducted in technical triplicate. […] For the C. elegans NPRs, we considered the strongest response elicited by any of the peptides downstream of a particular receptor as the receptor’s maximal signal. This may or may not be the biological maximum that can be reached by the ‘true’ endogenous agonist. For the human receptors, the response to the established endogenous agonist reflected the maximal signal.

Y2R = target: T1, Y2R (Homo sapiens, UniProt P49146); assay: IP accumulation assay, chimeric GαΔ6qi4myr, Y2R; assay type: cell-based; conditions: chimeric GαΔ6qi4myr co-transfected, transiently transfected HEK293 cells, mean of at least three independent experiments
T1 construct: expressed in transfected cells; host or cells: HEK293, transient
T1 sequence (P49146 1-381): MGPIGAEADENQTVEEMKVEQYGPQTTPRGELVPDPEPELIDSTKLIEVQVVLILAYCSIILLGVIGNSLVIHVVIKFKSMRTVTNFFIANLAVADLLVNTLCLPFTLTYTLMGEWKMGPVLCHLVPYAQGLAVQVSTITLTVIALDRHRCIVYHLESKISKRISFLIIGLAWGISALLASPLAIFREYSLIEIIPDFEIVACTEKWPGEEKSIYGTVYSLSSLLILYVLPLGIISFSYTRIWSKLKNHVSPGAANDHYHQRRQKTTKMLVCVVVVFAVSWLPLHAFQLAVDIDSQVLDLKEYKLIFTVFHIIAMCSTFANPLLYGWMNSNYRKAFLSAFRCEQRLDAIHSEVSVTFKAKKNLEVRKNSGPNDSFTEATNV
Description: (§3) For measuring IP accumulation, HEK293 cells grown to 70–80% confluency in 6-well plates were transiently co-transfected using Metafectene Pro (2.5 μl/μg DNA; Biontex) with plasmids containing receptor and/or mock (empty pcDNA3.1) (for endogenous Gq-coupling) using 4 μg total DNA in a ratio of 3:1 following the manufacturer’s instructions. For testing Gα16- and GαΔ6qi4myr-coupling, plasmids encoding the corresponding Gα protein were co-transfected instead of mock. Gα16 is naturally promiscuous and stimulates the phospholipase C (PLC) pathway leading to IP production, while the exchange of the C-terminal four amino acids of Gαq for the corresponding residues of Gαi1 in the chimeric GαΔ6qi4myr confers the ability to couple to Gi/o protein-preferring receptors but still stimulate PLC, thus specifically redirecting downstream cellular signaling. 16 h post transfection, the cells were seeded into white 384-well plates at a density of 20,000 cells/well. Media was removed 24 h later and the cells were incubated with the indicated concentration of peptides for 1 h in HBSS + 20 mM LiCl. IP accumulation was measured with the HTRF-based IP-One Gq kit (Cisbio) on a microplate reader (Tecan Spark).
as §2

Y4R = target: T2, Y4R (Homo sapiens, UniProt P50391); assay: IP accumulation assay, chimeric GαΔ6qi4myr, Y4R; assay type: cell-based; conditions: chimeric GαΔ6qi4myr co-transfected, transiently transfected HEK293 cells, mean of at least three independent experiments
T2 construct: expressed in transfected cells; host or cells: HEK293, transient
T2 sequence (P50391 whole entry): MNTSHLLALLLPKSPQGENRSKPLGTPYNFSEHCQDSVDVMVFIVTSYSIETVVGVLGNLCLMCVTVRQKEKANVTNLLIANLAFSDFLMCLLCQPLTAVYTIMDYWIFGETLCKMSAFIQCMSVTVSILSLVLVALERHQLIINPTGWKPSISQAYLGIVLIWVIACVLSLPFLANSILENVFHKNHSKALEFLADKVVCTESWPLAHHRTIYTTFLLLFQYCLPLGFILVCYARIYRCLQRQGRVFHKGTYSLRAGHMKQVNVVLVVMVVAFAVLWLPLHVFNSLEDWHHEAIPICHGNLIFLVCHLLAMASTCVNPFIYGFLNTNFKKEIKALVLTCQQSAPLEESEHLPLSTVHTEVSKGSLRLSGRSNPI
Description: as §3, §2

PrRPR = target: T3, PrRPR (Homo sapiens, UniProt P49683); assay: IP accumulation assay, endogenous Gαq coupling, PrRPR; assay type: cell-based; conditions: transiently transfected HEK293 cells, mean of at least three independent experiments
T3 construct: expressed in transfected cells; host or cells: HEK293, transient
T3 sequence (P49683 1-370): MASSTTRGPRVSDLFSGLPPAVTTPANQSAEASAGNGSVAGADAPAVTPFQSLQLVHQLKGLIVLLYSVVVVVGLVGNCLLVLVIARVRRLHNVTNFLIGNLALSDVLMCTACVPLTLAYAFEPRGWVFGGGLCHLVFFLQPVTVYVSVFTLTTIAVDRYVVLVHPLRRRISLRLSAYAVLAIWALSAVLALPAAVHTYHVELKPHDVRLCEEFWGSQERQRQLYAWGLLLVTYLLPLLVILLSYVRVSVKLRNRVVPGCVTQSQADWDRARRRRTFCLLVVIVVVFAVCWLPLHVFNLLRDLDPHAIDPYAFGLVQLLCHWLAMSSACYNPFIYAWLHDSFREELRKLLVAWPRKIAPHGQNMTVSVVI
Description: as §3, §2

NPR-1 = target: T4, NPR-1 (Caenorhabditis elegans, UniProt Q18534); assay: cAMP reporter gene assay, Gi/o (inhibition of forskolin-induced cAMP), NPR-1; assay type: cell-based, C. elegans; set-up: host or cells: HEK293; conditions: inhibition of cAMP production induced by 1 µM forskolin (set to 1.00), lower = higher Gi/o activity, transiently transfected HEK293 cells, mean of at least three independent experiments
T4 sequence (Q18534 1-457): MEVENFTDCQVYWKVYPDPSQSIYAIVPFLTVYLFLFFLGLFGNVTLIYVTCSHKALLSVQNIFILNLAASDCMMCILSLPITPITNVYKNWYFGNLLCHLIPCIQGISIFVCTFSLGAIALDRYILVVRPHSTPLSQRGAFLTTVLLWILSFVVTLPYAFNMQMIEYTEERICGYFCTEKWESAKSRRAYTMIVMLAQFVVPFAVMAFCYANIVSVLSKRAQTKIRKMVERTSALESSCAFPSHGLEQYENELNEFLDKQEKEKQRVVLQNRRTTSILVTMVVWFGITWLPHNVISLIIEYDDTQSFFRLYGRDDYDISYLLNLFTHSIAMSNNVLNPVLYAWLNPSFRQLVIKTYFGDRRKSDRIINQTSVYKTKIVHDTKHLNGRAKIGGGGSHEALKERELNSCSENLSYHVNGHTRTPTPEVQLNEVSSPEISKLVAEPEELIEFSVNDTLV
Description: as §1, §2

Substance | cAMP, x-fold of forskolin (mean), NPR-6 (NPR-6; 0.1 µM peptide) | cAMP, x-fold of forskolin (mean), NPR-6 (NPR-6; 10 µM peptide) | IP accumulation, x-fold of basal (mean), Y2R (Y2R; 0.1 µM peptide) | IP accumulation, x-fold of basal (mean), Y2R (Y2R; 10 µM peptide) | IP accumulation, x-fold of basal (mean), Y4R (Y4R; 0.1 µM peptide) | IP accumulation, x-fold of basal (mean), Y4R (Y4R; 10 µM peptide) | IP accumulation, x-fold of basal (mean), PrRPR# (PrRPR; 0.1 µM peptide) | IP accumulation, x-fold of basal (mean), PrRPR# (PrRPR; 10 µM peptide) | cAMP, x-fold of forskolin (mean), NPR-1 (NPR-1; 0.1 µM peptide) | cAMP, x-fold of forskolin (mean), NPR-1 (NPR-1; 10 µM peptide)
APLEPVYPGDNATPEQMAQYAADLRRYINMLTRPRY-NH2 [PP, human pancreatic polypeptide, reference compound] | 1.01 x-fold of forskolin | 1.00 x-fold of forskolin | 3.40 x-fold of basal | 12.24 x-fold of basal | 4.73 x-fold of basal | 4.61 x-fold of basal | 0.99 x-fold of basal | 1.01 x-fold of basal | 1.21 x-fold of forskolin | 1.49 x-fold of forskolin
ASPSFIRF-NH2 [FLP-4-2, C. elegans FMRFamide-like peptide, C-terminally amidated, synthesized by SPPS] | 0.86 x-fold of forskolin | 0.72 x-fold of forskolin | 0.76 x-fold of basal | 2.05 x-fold of basal | 1.45 x-fold of basal | 1.04 x-fold of basal | 0.85 x-fold of basal | 0.86 x-fold of basal | 0.77 x-fold of forskolin | 0.76 x-fold of forskolin
NPENDTPFGTMRF-NH2 [FLP-3-4, C. elegans FMRFamide-like peptide, C-terminally amidated, synthesized by SPPS] | 0.85 x-fold of forskolin | 0.26 x-fold of forskolin | 1.01 x-fold of basal | 0.70 x-fold of basal | 1.31 x-fold of basal | 1.29 x-fold of basal | 1.86 x-fold of basal | 0.96 x-fold of basal | 0.87 x-fold of forskolin | 0.89 x-fold of forskolin
PrRP31 [reference compound] | 0.96 x-fold of forskolin | 1.25 x-fold of forskolin | 0.76 x-fold of basal | 5.57 x-fold of basal | 0.84 x-fold of basal | 1.10 x-fold of basal | 25.49 x-fold of basal | 25.47 x-fold of basal | 1.30 x-fold of forskolin | 1.41 x-fold of forskolin
